Data: PubChem BioAssay AID977605 (Broad Institute, 2014)
Active and inactive are the calls of the source.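 The calls were made as follows: active = fitted curve reaches 40% activation below the top valid tested dose, in every test run; inconclusive = test runs disagree on the call; inactive = the rest, including effects opposite to the expected direction.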

System: not listed separately
Assay: E-selectin inducers in HUVECs, dose response, imaging, HUVEC, cherry-picked samples (AID 977605);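 also: signal is the share of imaged cells scored positive for E-selectin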
Conditions: HUVEC E-selectin immunostaining, at 19.5 µM (top of the series), percent of TNF-alpha response over vehicle

Structure (SMILES) | activation
COc1ccccc1CC(Cc1nc2ccccc2[nH]1)c1nc2ccccc2[nH]1 (stereo unspecified) | 0.165% (inactive)
C[C@H](CO)N1C[C@H](C)[C@@H](CN(C)Cc2ccc(-c3ccccc3)cc2)Oc2c(NC(=O)Nc3cccc4ccccc34)cccc2C1=O | 1.82% (inactive)
C[C@H](CO)N1C[C@H](C)[C@@H](CN(C)S(C)(=O)=O)Oc2ccc(NC(=O)C3CCCCC3)cc2CC1=O | 0.112% (inactive)
COc1ccccc1N(CC(=O)NCCSc1ccccn1)S(=O)(=O)c1ccccc1 | -0.052% (inactive)
C[C@@H]1CN([C@@H](C)CO)C(=O)c2cccc(NC(=O)CCCCCC(=O)Nc3ccccc3N)c2O[C@H]1CN(C)S(=O)(=O)c1cn(C)cn1 | 0.292% (inactive)
COc1ccc([C@H]2CC(=O)C[C@@H](CCn3nnc4ccccc43)O2)cc1 | 0.021% (inactive)
Cc1noc(C)c1NC(=O)N(C)C[C@H]1Oc2ccc(NS(=O)(=O)c3c(C)noc3C)cc2C(=O)N([C@H](C)CO)C[C@@H]1C | -0.221% (inactive)
C[C@H](CO)N1C[C@H](C)[C@H](CN(C)S(=O)(=O)c2ccc(Cl)cc2)Oc2ccc(NC(=O)NC3CCCCC3)cc2C1=O | -0.048% (inactive)
C[C@@H]1CN([C@H](C)CO)C(=O)c2cc(NS(=O)(=O)c3cn(C)cn3)ccc2O[C@H]1CN(C)C(=O)Nc1ccc2c(c1)OCO2 | 0.041% (inactive)
C[C@@H]1CN([C@H](C)CO)C(=O)c2cccc(NC(=O)CCCCCC(=O)Nc3ccccc3N)c2O[C@@H]1CN(C)S(=O)(=O)c1cn(C)cn1 | -0.195% (inactive)
COc1ccc(OCC(O)CNC(=O)c2ccccc2)cc1 (stereo unspecified) | 4.38% (inactive)
COc1cc(OC)cc(N(C(=O)c2snc(C(N)=O)c2N)C(C(=O)NCC2CCCO2)c2ccc(C)o2)c1 (stereo unspecified) | -0.112% (inactive)

Same assay, conditions: HUVEC E-selectin immunostaining, at 21 µM (top of the series), percent of TNF-alpha response over vehicle

Structure (SMILES) | activation
C[C@H]1CN([C@@H](C)CO)C(=O)c2cccc(NC(=O)c3ccc(-c4nccs4)cc3)c2O[C@H]1CN(C)Cc1ccc(Oc2ccccc2)cc1 | 0.436% (inactive)
C[C@@H]1CN([C@H](C)CO)C(=O)c2cc(NS(=O)(=O)c3cn(C)cn3)ccc2O[C@H]1CN(C)Cc1ccncc1 | -0.069% (inactive)

System: HUVEC E-selectin immunostaining, imaging, 16 h
Assay: as above
Conditions: not given

Structure (SMILES) | AC40 [µM]
COc1cccc(CNC(=O)c2cc3c(c(-c4cccc(-c5ccc(C#N)cc5)c4)n2)[C@H](CCO)N([S@@](=O)C(C)(C)C)C3)c1 | 14.7
CO[C@@H]1CN(C)C(=O)c2ccc(NC(=O)Nc3ccc(F)cc3)cc2OC[C@@H](C)N(C(=O)c2ccc(F)cc2)C[C@H]1C | 12.4
Cc1ccc(S(=O)(=O)NCc2ccc3c(c2)cc(C)n3C)cc1 | 13.6
CC(C)(C)[S@](=O)N1Cc2cc(C(=O)N[C@H]3CCN(Cc4ccccc4)C3)nc(-c3cccc(-c4ccncc4)c3)c2[C@@H]1CCO | 13.2
Cc1cc2cc(CNC(=O)Nc3cccc(Cl)c3)ccc2n1C | 10.8
FC(F)(F)c1ccc2c(c1)N1CCCC1CN2 (stereo unspecified) | 7.71
O=C(C[C@@H]1CC[C@H]2[C@@H](COC[C@H](O)CN2C(=O)c2ccc(F)cc2)O1)Nc1ccc(-c2ccccc2)cc1 | 8
COc1ccc(S(=O)(=O)N(C)C[C@@H]2OCCCC[C@H](C)Oc3ccc(NC(=O)Nc4cccc5ccccc45)cc3C(=O)N([C@H](C)CO)C[C@H]2C)cc1 | 17.7
Cc1cc2cc(CNC(=O)Nc3ccc(Cl)c(Cl)c3)ccc2n1C | 10.1
Cc1cc2c(SCc3ccccc3Cl)nc(N)nc2nc1C | 11.4
Cc1cc2ccccc2n1CCNC(=O)COc1ccc2ccccc2c1 | 11.3
Cc1cccc(NC(=O)NCc2ccc3c(c2)cc(C)n3C)c1 | 12
COc1ccc(CNC(=O)c2cc3c(c(-c4cccc(-c5cccc(C#N)c5)c4)n2)[C@H](CCO)N([S@@](=O)C(C)(C)C)C3)cc1 | 19.4
Cc1cc(C)c(S(=O)(=O)NCCn2c(C)cc3ccccc32)c(C)c1 | 14.3
COc1ccc(Nc2ccccc2N)cc1 | 5.67
Cc1cccc(-c2cc(N3CCCN(C)CC3)n3nccc3n2)c1 | 5.24
COc1ccc(NC(=O)N(C)C[C@H]2Oc3ccc(NS(=O)(=O)c4cccs4)cc3C(=O)N([C@H](C)CO)C[C@@H]2C)cc1 | 17.7
